As usually defined, the DC50 is the midpoint of the concentration-degradation curve.

The structures appear in SMILES notation.

One experiment concerns the target T1, ER (Homo sapiens, UniProt P03372).
T1 construct: host or cells: T47D and MCF7 human breast cancer cells
T1 sequence (P03372 1-595): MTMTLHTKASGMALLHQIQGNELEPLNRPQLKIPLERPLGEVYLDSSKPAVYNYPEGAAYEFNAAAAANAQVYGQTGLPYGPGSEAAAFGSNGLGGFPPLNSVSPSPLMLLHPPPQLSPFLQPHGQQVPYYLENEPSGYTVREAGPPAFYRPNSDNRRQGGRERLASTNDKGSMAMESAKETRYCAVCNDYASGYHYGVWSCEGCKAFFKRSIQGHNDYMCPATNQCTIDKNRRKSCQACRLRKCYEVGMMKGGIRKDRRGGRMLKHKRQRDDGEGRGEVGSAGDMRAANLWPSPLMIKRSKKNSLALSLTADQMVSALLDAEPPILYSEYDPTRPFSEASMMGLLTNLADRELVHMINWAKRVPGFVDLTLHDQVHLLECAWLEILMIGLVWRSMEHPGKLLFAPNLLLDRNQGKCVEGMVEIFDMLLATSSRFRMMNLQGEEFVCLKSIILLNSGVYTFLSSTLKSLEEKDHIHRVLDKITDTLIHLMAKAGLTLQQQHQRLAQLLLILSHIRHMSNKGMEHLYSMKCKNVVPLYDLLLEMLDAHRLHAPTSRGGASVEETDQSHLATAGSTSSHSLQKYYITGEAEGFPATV
Description: ER degradation activity, in-cell western blot analysis in T47D cells. It counts as cell-based. The settings on record: 16 hours, Table A does not say which cell line (T47D or MCF7), read-out: Potency (DC50). In a few lines: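 In-cell western, T47D; compounds 16 h, 0.5% DMSO final; anti-rabbit-680/anti-mouse-800 secondaries, 1 h RT, dark; read on CLX imager. ER % vs untreated/DMSO wells (100%).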
Regarding `C[C@@H]1Cc2c([nH]c3ccccc23)[C@@H](c2c(F)cc(N3CCC(CN4CCC(N5Cc6cc7c(cc6C5)C(=O)N(C5CCC(=O)NC5=O)C7=O)C4)CC3)cc2F)N1CC(F)F` (stereo partly drawn) [E 129, 6-(1-((1-(4-((1R,3R)-2-(2,2-difluoroethyl)-3-methyl-2,3,4,9-tetrahydro-1H-pyrido[3,4-b]indol-1-yl)-3,5-difluorophenyl)piperidin-4-yl)methyl)pyrrolidin-3-yl)-2-(2,6-dioxopiperidin-3-yl)-6,7-dihydropyrrolo[3,4-f]isoindole-1,3(2H,5H)-dione], the DC50 is less than 0.01 µM.

For `C[C@@H]1Cc2c([nH]c3ccccc23)[C@@H](c2c(F)cc(N3CCC4(CCN(CC(=O)N5Cc6cc7c(cc6C5)C(=O)N(C5CCC(=O)NC5=O)C7)CC4)C3)cc2F)N1CC(F)F` (stereo partly drawn) [E 108, 3-(6-(2-(2-(4-((1R,3R)-2-(2,2-difluoroethyl)-3-methyl-2,3,4,9-tetrahydro-1H-pyrido[3,4-b]indol-1-yl)-3,5-difluorophenyl)-2,8-diazaspiro[4.5]decan-8-yl)acetyl)-1-oxo-3,5,6,7-tetrahydropyrrolo[3,4-f]isoindol-2(1H)-yl)piperidine-2,6-dione], the 50% degradation concentration (DC50) is less than 0.01 µM. For the compound `C[C@@H]1Cc2c([nH]c3ccccc23)[C@@H](c2c(F)cc(N3CC(C(=O)N4CCC(N5Cc6cc7c(cc6C5)C(=O)N(C5CCC(=O)NC5=O)C7=O)CC4)C3)cc2F)N1CC(F)F` (stereo partly drawn) [E 236, 6-(1-(1-(4-((1R,3R)-2-(2,2-difluoroethyl)-3-methyl-2,3,4,9-tetrahydro-1H-pyrido[3,4-b]indol-1-yl)-3,5-difluorophenyl)azetidine-3-carbonyl)piperidin-4-yl)-2-(2,6-dioxopiperidin-3-yl)-6,7-dihydropyrrolo[3,4-f]isoindole-1,3(2H,5H)-dione], the 50% degradation concentration (DC50) was more than 0.1 µM. On to `O=C1CCC(N2C(=O)c3cc4c(cc3C2=O)CN(CC(=O)N2CCC3(CCC(Oc5ccc([C@@H]6c7ccc(O)cc7CC[C@@H]6c6ccccc6)cc5)CC3)CC2)C4)C(=O)N1` (stereo partly drawn) [E 224, 2-(2,6-dioxopiperidin-3-yl)-6-(2-(9-(4-((1R,2S)-6-hydroxy-2-phenyl-1,2,3,4-tetrahydronaphthalen-1-yl)phenoxy)-3-azaspiro[5.5]undecan-3-yl)-2-oxoethyl)-6,7-dihydropyrrolo[3,4-f]isoindole-1,3(2H,5H)-dione], for which the DC50 is more than 0.1 µM. Turning to `C[C@@H]1Cc2c([nH]c3ccccc23)[C@@H](c2ccc(N3CCC4(CCN(C(=O)CN5Cc6cc7c(cc6C5)C(=O)N(C5CCC(=O)NC5=O)C7=O)CC4)CC3)cn2)N1CC(F)F` (stereo partly drawn) [E 280, 6-(2-(9-(6-((1S,3R)-2-(2,2-difluoroethyl)-3-methyl-2,3,4,9-tetrahydro-1H-pyrido[3,4-b]indol-1-yl)pyridin-3-yl)-3,9-diazaspiro[5.5]undecan-3-yl)-2-oxoethyl)-2-(2,6-dioxopiperidin-3-yl)-6,7-dihydropyrrolo[3,4-f]isoindole-1,3(2H,5H)-dione], the DC50 was more than 0.1 µM.

As for `O=C1CCC(N2C(=O)c3cc4c(cc3C2=O)CN(C(=O)CN2CCC3(CC2)CCN(c2ccc([C@@H]5c6ccc(O)cc6CC[C@@H]5c5ccccc5)cc2)C3)C4)C(=O)N1` (mixture of isomers) [E 141, Rac-2-(2,6-dioxopiperidin-3-yl)-6-(2-(2-(4-((1R,2S)-6-hydroxy-2-phenyl-1,2,3,4-tetrahydronaphthalen-1-yl)phenyl)-2,8-diazaspiro[4.5]decan-8-yl)acetyl)-6,7-dihydropyrrolo[3,4-f]isoindole-1,3(2H,5H)-dione], the DC50 was more than 0.1 µM.

For `O=C1CCC(N2C(=O)c3cc4c(cc3C2=O)CN([C@H]2CC[C@@H](C(=O)N3CC(Nc5ccc([C@H]6c7ccc(O)cc7CC[C@H]6c6ccccc6)cc5)C3)CC2)C4)C(=O)N1` (stereo partly drawn) [E 386, 2-(2,6-dioxopiperidin-3-yl)-6-((1R,4s)-4-(3-((4-((1S,2R)-6-hydroxy-2-phenyl-1,2,3,4-tetrahydronaphthalen-1-yl)phenyl)amino)azetidine-1-carbonyl)cyclohexyl)-6,7-dihydropyrrolo[3,4-f]isoindole-1,3(2H,5H)-dione], the DC50 is more than 0.1 µM. Still for that read-out and setting: the same measure for `O=C1CCC(N2C(=O)c3cc4c(cc3C2=O)CN(Cc2cnc(N3CC(Oc5ccc([C@@H]6c7ccc(O)cc7CC[C@@H]6c6ccccc6)cc5)C3)cn2)C4)C(=O)N1` (stereo partly drawn) [E 342, 2-(2,6-dioxopiperidin-3-yl)-6-((5-(3-(4-((1R,2S)-6-hydroxy-2-phenyl-1,2,3,4-tetrahydronaphthalen-1-yl)phenoxy)azetidin-1-yl)pyrazin-2-yl)methyl)-6,7-dihydropyrrolo[3,4-f]isoindole-1,3(2H,5H)-dione]: more than 0.1 µM; for `O=C1CCC(N2C(=O)c3cc4c(cc3C2=O)CN(CC2CCN(C(=O)C3CCN(c5ccc([C@@H]6c7ccc(O)cc7CC[C@@H]6c6ccccc6)cc5)CC3)CC2)C4)C(=O)N1` (mixture of isomers) [E 14, Rac-2-(2,6-dioxopiperidin-3-yl)-6-((1-(1-(4-((1R,2S)-6-hydroxy-2-phenyl-1,2,3,4-tetrahydronaphthalen-1-yl)phenyl)piperidine-4-carbonyl)piperidin-4-yl)methyl)-6,7-dihydropyrrolo[3,4-f]isoindole-1,3(2H,5H)-dione]: 0.01 to 0.1 µM.

Turning to `O=C1CCC(N2C(=O)c3cc4c(cc3C2=O)CN(CC2CN(C(=O)C3CCN(c5ccc([C@@H]6c7ccc(O)cc7CC[C@@H]6c6ccccc6)cc5)CC3)C2)C4)C(=O)N1` (mixture of isomers) [E 16, Rac-2-(2,6-dioxopiperidin-3-yl)-6-((1-(1-(4-((1R,2S)-6-hydroxy-2-phenyl-1,2,3,4-tetrahydronaphthalen-1-yl)phenyl)piperidine-4-carbonyl)azetidin-3-yl)methyl)-6,7-dihydropyrrolo[3,4-f]isoindole-1,3(2H,5H)-dione], the 50% degradation concentration (DC50) lay within 0.01 to 0.1 µM. Consider `C[C@@H]1Cc2c([nH]c3ccccc23)[C@@H](c2c(F)cc(N3CCC(N4CCC(CN5Cc6cc7c(cc6C5)C(=O)N(C5CCC(=O)NC5=O)C7)CC4)CC3)cc2F)N1CC(F)F` (stereo partly drawn) [E 86, 3-(6-((1′-(4-((1R,3R)-2-(2,2-difluoroethyl)-3-methyl-2,3,4,9-tetrahydro-1H-pyrido[3,4-b]indol-1-yl)-3,5-difluorophenyl)-[1,4′-bipiperidin]-4-yl)methyl)-1-oxo-3,5,6,7-tetrahydropyrrolo[3,4-f]isoindol-2(1H)-yl)piperidine-2,6-dione], for which the DC50 was 0.01 to 0.1 µM. Still for that read-out and setting: the same measure for `C[C@@H]1Cc2c([nH]c3ccccc23)[C@@H](c2ccc(N3CCC4(CC3)CN(C(=O)CN3Cc5cc6c(cc5C3)C(=O)N(C3CCC(=O)NC3=O)C6=O)C4)cc2)N1CC(F)F` (stereo partly drawn) [E 262, 6-(2-(7-(4-((1R,3R)-2-(2,2-difluoroethyl)-3-methyl-2,3,4,9-tetrahydro-1H-pyrido[3,4-b]indol-1-yl)phenyl)-2,7-diazaspiro[3.5]nonan-2-yl)-2-oxoethyl)-2-(2,6-dioxopiperidin-3-yl)-6,7-dihydropyrrolo[3,4-f]isoindole-1,3(2H,5H)-dione]: 0.01 to 0.1 µM; for `C[C@@H]1Cc2c([nH]c3ccccc23)[C@@H](c2c(F)cc(N3CCC(CC(=O)N4Cc5cc6c(cc5C4)C(=O)N(C4CCC(=O)NC4=O)C6)CC3)cc2F)N1CC(F)F` (stereo partly drawn) [E 104, 3-(6-(2-(1-(4-((1R,3R)-2-(2,2-difluoroethyl)-3-methyl-2,3,4,9-tetrahydro-1H-pyrido[3,4-b]indol-1-yl)-3,5-difluorophenyl)piperidin-4-yl)acetyl)-1-oxo-3,5,6,7-tetrahydropyrrolo[3,4-f]isoindol-2(1H)-yl)piperidine-2,6-dione]: more than 0.1 µM; for `C[C@@H]1Cc2cc(O)ccc2[C@@H](c2c(F)cc(N3CC4(CCN(C(=O)CN5Cc6cc7c(cc6C5)C(=O)N(C5CCC(=O)NC5=O)C7)CC4)C3)cc2F)N1CC(C)(F)F` (stereo partly drawn) [E 27, 3-(6-(2-(2-(4-((1S,3R)-2-(2,2-difluoropropyl)-6-hydroxy-3-methyl-1,2,3,4-tetrahydroisoquinolin-1-yl)-3,5-difluorophenyl)-2,7-diazaspiro[3.5]nonan-7-yl)-2-oxoethyl)-1-oxo-3,5,6,7-tetrahydropyrrolo[3,4-f]isoindol-2(1H)-yl)piperidine-2,6-dione]: more than 0.1 µM.

For `O=C1CCC(N2Cc3cc4c(cc3C2=O)CN(C2CCN(CC3CCN(c5ccc([C@@H]6c7ccc(O)cc7CC[C@@H]6c6ccc(F)cc6)cc5)CC3)CC2)C4)C(=O)N1` (stereo partly drawn) [E 275, 3-(6-(1-((1-(4-((1R,2S)-2-(4-fluorophenyl)-6-hydroxy-1,2,3,4-tetrahydronaphthalen-1-yl)phenyl)piperidin-4-yl)methyl)piperidin-4-yl)-1-oxo-3,5,6,7-tetrahydropyrrolo[3,4-f]isoindol-2(1H)-yl)piperidine-2,6-dione], the DC50 is less than 0.01 µM.

Still in this experiment, the particulars now being: compounds 16 hours, Table A does not say whether T47D or MCF7, read-out: Potency (DC50).
Take `COc1cc([C@H]2CC[C@H](C(=O)N3CCC(N4Cc5cc6c(cc5C4)C(=O)N(C4CCC(=O)NC4=O)C6=O)CC3)CC2)ncc1[C@@H]1c2[nH]c3ccccc3c2C[C@@H](C)N1CC(F)F` (stereo partly drawn) [E 397, 6-(1-((1R,4r)-4-(5-((1R,3R)-2-(2,2-difluoroethyl)-3-methyl-2,3,4,9-tetrahydro-1H-pyrido[3,4-b]indol-1-yl)-4-methoxypyridin-2-yl)cyclohexane-1-carbonyl)piperidin-4-yl)-2-(2,6-dioxopiperidin-3-yl)-6,7-dihydropyrrolo[3,4-f]isoindole-1,3(2H,5H)-dione]: the DC50 was more than 0.1 µM.

Source of the values: US20240190880A1 (THE REGENTS OF THE UNIVERSITY OF MICHIGAN, priority 2021, published 2024).
